Experimental data: patent US8476197B2, “Aminopropenoates as fungicides” (priority 2009, dated 2013)
Marks after values point to notes of the source that are not given here.

Conditions: pH 2.3

| Compound | Log P |
| --- | --- |
| CCOC(=O)C(C#N)=C(Nc1ccccc1SC)c1cccnc1Cl [Compound 341] | 3.32 |
| CCOC(=O)C(C#N)=C(NC(C)CSC)c1cccnc1OC (centres unmarked) [Compound 687] | 2.96 |
| COC(=O)C(C#N)=C(Nc1ccccc1OC)c1cccnc1Cl [Compound 335] | 2.58 |
| CON(C)C(=O)C(C#N)=C(NC(C)C(C)C)c1cccnc1Cl (centres unmarked) [Compound 1246] | 2.68 |

Continued, values first:

| Log P | Compound |
| --- | --- |
| 3 | CCOC(=O)C(C#N)=C(Nc1ccc(F)c(F)c1)c1cccnc1Cl [Compound 1597] |
| 2.83^[c]; 2.83^[b] | CC(C)C(C)NC(=C(C#N)C(=O)NC1CC1F)c1cccnc1Cl (centres unmarked) [Compound 1456] |
| 3.39 | CCOC(=O)C(C#N)=C(NC(C)C(C)C)c1ccc(Cl)nc1 (centres unmarked) [Compound 1617] |
| 2.69 | C#CCNC(=O)C(C#N)=C(NC(C)C(C)C)c1cccnc1Cl (centres unmarked) [Compound 991] |

Same assay, conditions: pH 2.7

| Compound | Log P |
| --- | --- |
| CCOC(=O)C(C#N)=C(NCc1ccccn1)c1sccc1C(F)(F)F [Compound 102] | 2.84^[a] |
| CCOC(=O)C(C#N)=C(NC(C)C(C)C)c1cn(C)nc1I (centres unmarked) [Compound 1202] | 3.22^[a] |
| CCOC(=O)C(C#N)=C(Nc1ccccc1OC(C)C)c1sccc1Br [Compound 467] | 4.46^[a] |
| COC(=O)C(C#N)=C(NCc1nccs1)c1sc(C)nc1C(F)(F)F [Compound 132] | 2.33^[a] |
| C=CCOC(=O)C(C#N)=C(NC(C)C(C)C)c1cccnc1Cl (centres unmarked) [Compound 955] | 3.55 |
| CCOC(=O)C(C#N)=C(Nc1ccc(C(C)C)cc1)c1sccc1C(F)(F)F [Compound 481] | 4.75^[a] |
| CCNC(=O)C(C#N)=C(NC(C)c1ccccn1)c1cccnc1Cl (centres unmarked) [Compound 1584] | 1.93^[a] |
| CCOC(=O)C(C#N)=C(NCc1nc(C(F)(F)F)cs1)c1sc(C)nc1C(F)(F)F [Compound 198] | 3.35^[a] |
| CCOC(=O)C(C#N)=C(Nc1ccccc1SC)c1ccsc1Br [Compound 412] | 3.99^[a] |
| CCOC(=O)C(C#N)=C(NC(C)c1ccccn1)c1ccsc1Br (centres unmarked) [Compound 116] | 3.1^[a] |
| CCOC(=O)C(C#N)=C(NC(C)c1ccc(Cl)cc1)c1cn(C)nc1C(F)F (centres unmarked) [Compound 348] | 3.6^[a] |
| CCOC(=O)C(C#N)=C(NC(C)c1nn(C)c(=O)n1C)c1cc(Cl)ncc1Cl (racemic) [Compound 255] | 3.76^[a] |
| CCOC(=O)C(C#N)=C(NCc1ccccn1)c1ccsc1I [Compound 166] | 2.56^[a] |
| CCOC(=O)C(C#N)=C(NCc1nccs1)c1sc(C)nc1C(F)(F)F [Compound 141] | 2.66^[a] |
| COC(=O)C(C#N)=C(NC(C)c1ccc(OC)c(OC)c1)c1cccnc1Cl (centres unmarked) [Compound 400] | 2.34^[a] |
| COC(=O)C(C#N)=C(Nc1ccc2ncsc2c1)c1sc(C)nc1C(F)(F)F [Compound 465] | 2.64^[a] |
| CCOC(=O)C(C#N)=C(NC(C)c1cccc(C)n1)c1cccnc1Cl (centres unmarked) [Compound 1440] | 2.56^[a] |
| CCOC(=O)C(C#N)=C(NC(C)c1nccs1)c1cn(C)nc1C(C)(F)F (centres unmarked) [Compound 312] | 2.62^[a] |
| CCOC(=O)C(C#N)=C(NC(C)Cc1c[nH]c2ccccc12)c1nsc(Cl)c1Cl (racemic) [Compound 54] | 4.1^[a] |
| CCOC(=O)C(C#N)=C(Nc1ccccc1SC(F)(F)C(F)(F)F)c1cc(C)oc1C [Compound 415] | 4.7^[a] |
| CCOC(=O)C(C#N)=C(NC(C)Cc1ccncc1)c1cccnc1Cl (centres unmarked) [Compound 320] | 1.64^[a] |
| CCOC(=O)C(C#N)=C(NC(C)c1nc(C(F)(F)F)no1)c1cc(Cl)ncc1Cl (racemic) [Compound 254] | 3.83^[a] |
| CCOC(=O)C(C#N)=C(Nc1ccccc1OC(C)C)c1cn(C)nc1C(F)F [Compound 471] | 3.53^[a] |
| COC(=O)C(C#N)=C(NC(C)c1ccccc1C)c1cccnc1Cl (centres unmarked) [Compound 373] | 3.15^[a] |
| COC(=O)C(C#N)=C(NC(C)Cc1c[nH]c2ccccc12)c1cn(C)nc1C(F)F (racemic) [Compound 57] | 3^[a] |
| CCOC(=O)C(C#N)=C(NC(Cc1ncccc1C)C(F)(F)F)c1cccnc1Cl (racemic) [Compound 1262] | 3.04^[a] |
| CCOC(=O)/C(C#N)=C(\NC(C)c1nccs1)c1sccc1Cl (centres unmarked) [Compound 149] | 3.09^[a] |
| COC(=O)C(C#N)=C(NC(C)C1CC1)c1cccnc1Cl (centres unmarked) [Compound 880] | 2.58^[a] |
| CCOC(=O)C(C#N)=C(Nc1ccc(OC)cc1)c1cn(C)nc1C(F)F [Compound 495] | 2.77^[a] |
| CCOC(=O)C(C#N)=C(NCc1ccccn1)c1sc(C)nc1C(F)(F)F [Compound 144] | 2.7^[a] |

More lines, now with the values ahead:

| Log P | Compound |
| --- | --- |
| 1.94^[a] | CCOC(=O)C(C#N)=C(NCc1ccc(C)c(C)n1)c1scnc1Cl [Compound 1478] |
| 3.53^[a] | COC(=O)C(C#N)=C(Nc1ccc(SC)cc1)c1sc(C)nc1C(F)(F)F [Compound 516] |
| 4.35^[a] | CCOC(=O)C(C#N)=C(NC(C)CC(C)C)c1cc(C)oc1C (racemic) [Compound 779] |
| 3.25^[a] | CCOC(=O)C(C#N)=C(NC(C(=O)OCC)c1ccccc1)c1cn(C)nc1C(F)F (centres unmarked) [Compound 1349] |
| 1.59^[a] | CC(NC(=C(C#N)C(=O)N(C)C)c1cn(C)nc1C(F)F)c1ccccn1 (centres unmarked) [Compound 1295] |
| 2.82^[a] | CCOC(=O)C(C#N)=C(NC(C)CC)c1cn(C)nc1C(F)F (centres unmarked) [Compound 833] |
| 1.93^[a] | CNC(=O)C(C)NC(=C(C#N)C(=O)OC)c1sc(C)nc1C(F)(F)F (centres unmarked) [Compound 638] |
| 2.44^[a] | CC(C)C(C)NC(=C(C#N)C(=O)NCCC#N)c1cn(C)nc1C(F)F (centres unmarked) [Compound 1299] |
| 4.86^[a] | CCOC(=O)C(C#N)=C(NC(C)COc1c(C)cccc1C)c1sccc1Br (racemic) [Compound 670] |
| 1.9^[a] | CCOC(=O)C(C#N)=C(NC(C)C(N)=O)c1sccc1Br (centres unmarked) [Compound 611] |
| 3.19^[a] | CCCC(C)NC(=C(C#N)C(=O)OCC)c1cn(C)nc1C(F)F (centres unmarked) [Compound 864] |
| 2.34^[a] | COC(=O)C(C#N)=C(NC(C)(C)CC(F)(F)F)c1cccnc1Cl [Compound 758] |
| 2.74^[a] | CC(C)C(C)NC(=C(C#N)C(=O)O)c1sccc1Br (centres unmarked) [Compound 964] |
| 3.44^[a] | CCCC(COCC)NC(=C(C#N)C(=O)OCC)c1cn(C)nc1C(F)F (centres unmarked) [Compound 1354] |
| 4.04^[a] | CCOC(=O)C(C#N)=C(NC(C)(C)C#Cc1ccc(C#N)cc1)c1sc(C)nc1C(F)(F)F [Compound 1093] |
| 2.17^[a] | CCOC(=O)C(C#N)=C(NC(C)C(N)=O)c1ncc(C(F)(F)F)cc1Cl (racemic) [Compound 592] |
| 4.34^[a] | COC(=O)C(C#N)=C(NC(C)COc1c(C)cccc1C)c1sc(C)nc1C(F)(F)F (racemic) [Compound 662] |
| 4.51^[a] | CCCCCCC(C)NC(=C(C#N)C(=O)OCC)c1c(C)nn(C)c1F (racemic) [Compound 813] |
| 2.78^[a] | CCOC(=O)C(C#N)=C(NC1CCCC1OC)c1cn(C)nc1C(F)F (centres unmarked) [Compound 1352] |

| Log P | Compound |
| --- | --- |
| 2.43^[a] | CC(C)C(C)NC(=C(C#N)C(=O)N1CCOCC1)c1cn(C)nc1C(F)F (centres unmarked) [Compound 1326] |
| 3.56^[a] | CCOC(=O)C(C#N)=C(NC(C)C1CC1)c1cn(C)cc1C(F)(F)F (racemic) [Compound 901] |
| 3.39^[a] | CCOC(=O)C(C#N)=C(NC(C)C(C)C)c1cn(C)nc1C(C)(F)F (racemic) [Compound 1002] |
| 2.64^[a] | CCNC(=O)C(C#N)=C(NC(C)C1CC1)c1cnn(C)c1C(F)F (centres unmarked) [Compound 1309] |
| 4.23^[a] | CCOC(=O)C(C#N)=C(NC(C)C(C)C)c1sc(Cl)nc1Cl (centres unmarked) [Compound 973] |
| 3.41^[a] | C#CC(C)(C)NC(=C(C#N)C(=O)OCC)c1sccc1Cl [Compound 1032] |
| 3.06^[a] | C=Cc1nn(C)cc1C(NC(C)C(C)C)=C(C#N)C(=O)OCC (centres unmarked) [Compound 971] |
| 4.94^[a] | CCCCC[C@H](C)N/C(=C(/C#N)C(=O)OCC)c1ccsc1Br [Compound 861] |
| 2.76^[a] | CC(NC(=C(C#N)C(=O)N1CCSC1C)c1cccnc1Cl)c1nccs1 (centres unmarked) [Compound 1594] |
| 3.94^[a] | CCOC(=O)C(C#N)=C(NC(C)C1CCC1)c1c(CC)nn(C)c1Cl (centres unmarked) [Compound 1648] |
| 4.01^[a] | CCOC(=O)C(C#N)=C(Nc1ccc(SC)cc1)c1ccsc1Br [Compound 524] |
| 4.41^[a] | CCOC(=O)C(C#N)=C(NC(C)CC(C)C)c1ccsc1Br (racemic) [Compound 785] |
| 3.5^[a] | CCOC(=O)C(C#N)=C(NC(C)C1CC1)c1ccnc(Cl)c1F (centres unmarked) [Compound 1318] |
| 3.2^[a] | CCOC(=O)C(C#N)=C(NC(C)C1CC1)c1cnccc1C(F)(F)F (racemic) [Compound 897] |
| 3.89^[a] | CCOC(=O)C(C#N)=C(Nc1cccc(SC)c1)c1sc(C)nc1C(F)(F)F [Compound 505] |
| 4.16^[a] | CCOC(=O)C(C#N)=C(NC(C)(C)C#Cc1ccc(C#N)cc1)c1sccc1Br [Compound 1089] |
| 4.2^[a] | CCOC(=O)C(C#N)=C(NC(C)CSc1ccc(Cl)c(Cl)c1)c1cn(C)nc1C(F)F (racemic) [Compound 1236] |
| 1.89^[a] | C#CCNC(=O)C(C#N)=C(NC(C)c1ccccn1)c1cn(C)nc1C(F)F (racemic) [Compound 1407] |

Same assay, conditions: pH 7.5

| Compound | Log P |
| --- | --- |
| CC(C)OC(=O)C(C#N)=C(NC(C)c1nccs1)c1cccnc1Cl (centres unmarked) [Compound 23] | 2.7 |
| CCOC(=O)C(C#N)=C(Nc1ccccc1SC)c1cccnc1Cl [Compound 341] | 3.17 |
| C=CCOC(=O)C(C#N)=C(NC(C)C(C)C)c1cccnc1Cl (centres unmarked) [Compound 955] | 3.49 |
| CCOC(=O)C(C#N)=C(Nc1ccc(F)c(F)c1)c1cccnc1Cl [Compound 1597] | 2.96 |
| CCOC(=O)C(C#N)=C(NC(C)CSC)c1cccnc1OC (centres unmarked) [Compound 687] | 2.95 |
| CC(C)C(C)NC(=C(C#N)C(=O)NC1CC1F)c1cccnc1Cl (centres unmarked) [Compound 1456] | 2.83^[c]; 2.83^[b] |
| COC(=O)C(C#N)=C(NC(C)c1nccs1)c1cccnc1Br (centres unmarked) [Compound 21] | 2.12 |
| COC(=O)C(C#N)=C(Nc1ccccc1OC)c1cccnc1Cl [Compound 335] | 2.56 |
| CC(NC(=C(C#N)C(=O)OC1CCC1)c1cccnc1Cl)C1CC1 (mixture of isomers) [Compound 1245] | 3.46 |
| CON(C)C(=O)C(C#N)=C(NC(C)C(C)C)c1cccnc1Cl (centres unmarked) [Compound 1246] | 2.67 |
| CC(NC(=C(C#N)C(=O)OC1COC1)c1cccnc1Cl)C1CC1 (centres unmarked) [Compound 1281] | 2.31 |
| CCSCC(C)NC(=C(C#N)C(=O)OC)c1cccnc1Cl (centres unmarked) [Compound 577] | 2.72 |
| CCOC(=O)C(C#N)=C(NC(C)C(C)C)c1ccc(Cl)nc1 (centres unmarked) [Compound 1617] | 3.41 |
| C#CCNC(=O)C(C#N)=C(NC(C)C(C)C)c1cccnc1Cl (centres unmarked) [Compound 991] | 2.68 |
